Laboratory results reported in ChEMBL document CHEMBL1201862, “PubChem BioAssay data set” (2004).
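Following 48 hours of exposure in 96-well plates, responses at five concentrations were used to interpolate endpoints linearly. The concentration for 50% growth inhibition is given as GI50.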 Activity calls are given as the source filed them. No stated cut-off is given here; in the data, active = GI50 up to about 1.1 µM and inactive = higher.

Legend:
Assay in all cases: NCI tumour cell line growth inhibition, 48 h
LOX IMVI = test system: LOX IMVI
HCT-15 = test system: HCT-15
MOLT-4 = test system: MOLT-4
COLO 205 = test system: COLO 205
UO-31 = test system: UO-31
SW-620 = test system: SW-620
NCI-H23 = test system: NCI-H23
HCC 2998 = test system: HCC 2998
SN12C = test system: SN12C
OVCAR-8 = test system: OVCAR-8
HOP-62 = test system: HOP-62
MDA-MB-231 = test system: MDA-MB-231
NCI-H460 = test system: NCI-H460
ACHN = test system: ACHN
CCRF-CEM = test system: CCRF-CEM
HOP-92 = test system: HOP-92
M14 = test system: M14
SNB-75 = test system: SNB-75
A498 = test system: A498
RPMI-8226 = test system: RPMI-8226

For `O=C1N[C@H]2[C@H](O)[C@H](O)[C@@H](O)[C@H](O)[C@@H]2c2cc3c(c(O)c21)OCO3` [PANCRATISTATIN], the GI50 (LOX IMVI) was 30.7 nM (active), the GI50 (HCT-15) was 45 nM and the GI50 (MOLT-4) was 30.9 nM (active). The GI50 (COLO 205) was 28.8 nM (active), the GI50 (UO-31) was 87.5 nM (active) and the GI50 (SW-620) was 38.6 nM (active). For the same compound, the GI50 (NCI-H23) was 44.5 nM (active), the GI50 (HCC 2998) was 40.3 nM (active) and the GI50 (SN12C) was 36.5 nM (active). For the same compound, the GI50 (OVCAR-8) was 33.6 nM (active), the GI50 (HOP-62) was 44.9 nM (active) and the GI50 (MDA-MB-231) was 34.4 nM (active). For the same compound, the GI50 (NCI-H460) was 45.7 nM (active), the GI50 (ACHN) was 673 nM (active) and the GI50 (CCRF-CEM) was 32.4 nM (active). The GI50 (HOP-92) was 31.6 nM (active), the GI50 (M14) was 262 nM (active) and the GI50 (SNB-75) was 30.1 nM (active). For the same compound, the GI50 (A498) was 58.3 nM (active) and the GI50 (RPMI-8226) was 77.8 nM (active).
